From patent US20240132475A1, “SUBSTITUTED PYRAZOLYL COMPOUNDS AS MALT-1 INHIBITORS” (AURIGENE ONCOLOGY LIMITED, priority 2021, published 2024) come the findings set out here.

Some results are limits rather than exact numbers.

The target of the experiment is T1, MALT-1 (Isoform 1) (Homo sapiens, UniProt Q9UDY8).
T1 construct: using recombinant MALT-1 (Isoform 1, aa-840) generated in house; made in house
T1 sequence (Q9UDY8 1-824): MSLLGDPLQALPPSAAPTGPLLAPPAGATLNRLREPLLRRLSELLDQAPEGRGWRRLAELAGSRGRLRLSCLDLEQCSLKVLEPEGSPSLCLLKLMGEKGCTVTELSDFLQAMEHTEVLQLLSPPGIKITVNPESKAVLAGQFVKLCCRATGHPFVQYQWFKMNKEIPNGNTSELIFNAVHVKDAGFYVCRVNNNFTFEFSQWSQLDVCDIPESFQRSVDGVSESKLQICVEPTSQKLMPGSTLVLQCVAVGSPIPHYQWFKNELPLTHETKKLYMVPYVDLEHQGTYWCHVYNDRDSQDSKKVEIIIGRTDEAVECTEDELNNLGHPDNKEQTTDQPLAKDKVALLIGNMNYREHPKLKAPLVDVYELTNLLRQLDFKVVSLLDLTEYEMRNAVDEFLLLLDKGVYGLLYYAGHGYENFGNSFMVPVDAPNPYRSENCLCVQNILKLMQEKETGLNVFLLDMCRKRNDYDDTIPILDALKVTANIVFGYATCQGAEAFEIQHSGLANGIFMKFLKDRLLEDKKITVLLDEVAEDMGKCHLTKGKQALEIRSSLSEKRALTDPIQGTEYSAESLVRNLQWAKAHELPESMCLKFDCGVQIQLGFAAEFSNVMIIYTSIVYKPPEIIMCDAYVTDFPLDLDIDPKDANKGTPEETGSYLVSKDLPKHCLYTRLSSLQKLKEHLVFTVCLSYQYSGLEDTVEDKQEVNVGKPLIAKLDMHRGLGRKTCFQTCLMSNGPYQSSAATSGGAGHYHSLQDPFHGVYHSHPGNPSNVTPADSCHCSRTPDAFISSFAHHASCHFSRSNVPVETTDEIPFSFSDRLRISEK
Put plainly: MALT-1 (Isoform 1) enzyme fluorescent biochemical assay. The conditions noted are these: for IC50: dose-response, sigmoidal curve fit, reported as groups A, B, C; for inhibition at 1 µM / Percent Inhibition (1 μM): test compound 1 μM; for inhibition at 1 µM: read-out: Percent Inhibition (1 μM). The procedure: The potency of compounds to inhibit MALT-1 (Isoform 1) enzyme was tested in a Fluorescent assay using recombinant MALT-1 (Isoform 1, aa-840) generated in house. The assay buffer was 50 mM HEPES (pH 7.5), 100 mM NaCl, 10 mM DTT, 1 mM EDTA, 0.9 M sodium citrate, 0.01% CHAPS. 1.5 nM of MALT-1 enzyme was incubated with test compounds ([…]) (1% DMSO) in the presence of buffer for 30 minutes at 30° C. The protease reaction was initiated by adding […] of AC-LRSR-MAC (Peptide International, USA) substrate and incubated for 240 min. After 240 min incubation, fluorescence emission of the samples at 460 nm was measured at an excitation of 355 nm. The percent inhibition was calculated using the following formula: […]. IC50 values were determined by fitting the dose-response data to sigmoidal curve fitting equation using Graph pad prism software V8.
ND represents Not Determined.

By IC50 is commonly meant the concentration that inhibits the measured activity by half. Lower therefore signals greater potency in that assay. By inhibition is commonly meant the percentage by which the read-out fell short of the control. Take `O=C(Nc1ccnc(C(F)(F)F)c1)c1cnn(Cc2cccc(F)c2Cl)c1C(F)(F)F` [Compound 40, 1-(2-chloro-3-fluorobenzyl)-5-(trifluoromethyl)-N-(2-(trifluoromethyl)pyridin-4-y1)-1H-pyrazole-4-carboxamide]: the concentration for half-maximal inhibition (IC50) lay in the range of 251 to 1000 nM. Moreover, the inhibition at 1 µM (recombinant MALT-1 1.5 nM) came to 75%.
`COc1cccc(Cn2ncc(C(=O)Nc3cnc(-n4nccn4)c(C#N)c3)c2C(F)(F)F)c1` [Compound 17, N-(5-cyano-6-(2H-1,2,3-triazol-2-yl)pyridin-3-y1)-1-(3-methoxybenzyl)-5-(trifluoromethyl)-1H-pyrazole-4-carboxamide]: the inhibition at 10 µM (test compound 10 μM (stated in the cell), recombinant MALT-1 1.5 nM, read-out: Percent Inhibition (10 μM)) turned out to be 48%.
The compound `N#Cc1cc(NC(=O)c2cnn(Cc3cc(F)cc(F)c3)c2C(F)(F)F)cnc1-n1nccn1` [Compound 36, N-(5-cyano-6-(2H-1,2,3-triazol-2-y1)pyridin-3-yl)-1-(3,5-difluorobenzyl)-5-(trifluoromethyl)-1H-pyrazole-4-carboxamide] returned a half-maximal inhibitory concentration (IC50) of 251 to 1000 nM. In addition, the inhibition at 1 µM (recombinant MALT-1 1.5 nM) was 86%.
The like results for `N#Cc1cc(NC(=O)c2cnn(Cc3ccccc3Cl)c2C(F)(F)F)cnc1-n1nccn1` [Compound 20, 1-(2-chlorobenzyl)-N-(5-cyano-6-(2H-1,2,3-triazol-2-y1)pyridin-3-yl)-5-(trifluoromethyl)-1H-pyrazole-4-carboxamide] were, in that order, above 1000 nM and 46%.
For `N#Cc1cc(NC(=O)c2cnn(Cc3cccc(F)c3Cl)c2C(F)(F)F)cnc1-c1ccsc1` [Compound 55, 1-(2-chloro-3-fluorobenzyl)-N-(5-cyano-6-(thiophen-3-y1)pyridin-3-y1)-5-(trifluoromethyl)-1H-pyrazole-4-carboxamide] the same measures were 251 to 1000 nM and 63%.
For `N#Cc1cc(NC(=O)c2cnn(Cc3cccc(F)c3Cl)c2C(F)(F)F)cnc1-n1nccn1` [Compound 1, 1-(2-chloro-3-fluorobenzyl)-N-(5-cyano-6-(2H-1,2,3-triazol-2-yl)pyridin-3-yl)-5-(trifluoromethyl)-1H-pyrazole-4-carboxamide] the same measures were below 250 nM and 100%.
As to `N#Cc1cc(NC(=O)c2cnn(Cc3cc(F)ccc3F)c2C(F)(F)F)cnc1-n1nccn1` [Compound 29, N-(5-cyano-6-(2H-1,2,3-triazol-2-yl)pyridin-3-y1)-1-(2,5-difluorobenzyl)-5-(trifluoromethyl)-1H-pyrazole-4-carboxamide], the half-inhibitory concentration (IC50) was in the range of 251 to 1000 nM. Further, the inhibition at 1 µM (recombinant MALT-1 1.5 nM) was found to be 70%.
The like results for `N#Cc1cc(NC(=O)c2cnn(Cc3cccc(C(F)(F)F)c3)c2C(F)(F)F)cnc1-n1nccn1` [Compound 14, N-(5-cyano-6-(2H-1,2,3-triazol-2-yl)pyridin-3-y1)-5-(trifluoromethyl)-1-(3-(trifluoromethyl)benzyl)-1H-pyrazole-4-carboxamide] were, in that order, above 1000 nM and 67%.
The compound `O=C(Nc1cnc(C(=O)N2CCCC2)c(Cl)c1)c1cnn(Cc2cccc(F)c2Cl)c1C(F)(F)F` [Compound 45, 1-(2-chloro-3-fluorobenzyl)-N-(5-chloro-6-(pyrrolidine-1-carbonyl)pyridin-3-yl)-5-(trifluoromethyl)-1H-pyrazole-4-carboxamide] had an IC50 above 1000 nM. The inhibition at 1 µM (recombinant MALT-1 1.5 nM) was determined as 40%.
Compound `CC(c1ccccc1)n1ncc(C(=O)Nc2cnc(-n3nccn3)c(Cl)c2)c1C(F)(F)F` (single isomer, unassigned) [Compound 5a] registered a concentration for half-maximal inhibition (IC50) of 251 to 1000 nM. In addition, the “Percent Inhibition (1 μM)” value (recombinant MALT-1 1.5 nM) was found to be 78%.
For `CC(c1ccccc1)n1ncc(C(=O)Nc2cnc(-n3nccn3)c(C#N)c2)c1C(F)(F)F` (single isomer, unassigned) [Compound 2a] the same measures were below 250 nM and 99%.
On to `N#Cc1cc(NC(=O)c2cnn(Cc3cccc(F)c3C(F)(F)F)c2C(F)(F)F)cnc1-n1nccn1` [Compound 33, N-(5-cyano-6-(2H-1,2,3-triazol-2-yl)pyridin-3-y1)-1-(3-fluoro-2-(trifluoromethyl)benzy1)-5-(trifluoromethyl)-1H-pyrazole-4-carboxamide], for which the concentration for half-maximal inhibition (IC50) was below 250 nM. In addition, the inhibition at 1 µM (recombinant MALT-1 1.5 nM) was 99%.
The like results for `CC(c1cccc(F)c1)n1ncc(C(=O)Nc2cnc(-n3nccn3)c(C#N)c2)c1C(F)(F)F` (racemic) [Compound 3, N-(5-cyano-6-(2H-1,2,3-triazol-2-yl)pyridin-3-yl)-1-(1-(3-fluorophenyl)ethyl)-5-(trifluoromethyl)-1H-pyrazole-4-carboxamide] were, in that order, below 250 nM and 83%.
The compound `Cc1c(F)cccc1C(C)n1ncc(C(=O)Nc2cnc(-n3nccn3)c(C#N)c2)c1C(F)(F)F` (centres unmarked) [Compound 52, N-(5-cyano-6-(2H-1,2,3-triazol-2-yl)pyridin-3-yl)-1-(1-(3-fluoro-2-methylphenyl)ethyl)-5-(trifluoromethyl)-1H-pyrazole-4-carboxamide] showed an IC50 below 250 nM. Also, for the setting “recombinant MALT-1 1.5 nM”, the inhibition at 1 µM was determined as 100%.
In turn, `N#Cc1cc(NC(=O)c2cnn(Cc3cccc(F)c3Cl)c2C(F)(F)F)cnc1-c1ccoc1` [Compound 54, 1-(2-chloro-3-fluorobenzyl)-N-(5-cyano-6-(furan-3-yl)pyridin-3-y1)-5-(trifluoromethyl)-1H-pyrazole-4-carboxamide] had a half-inhibitory concentration (IC50) of 251 to 1000 nM. The inhibition at 1 µM (recombinant MALT-1 1.5 nM) was determined as 77%.
`CC(c1ccccc1)n1ncc(C(=O)Nc2cnc(-n3nccn3)c(Cl)c2)c1C(F)(F)F` (single isomer, unassigned) [Compound 5b] returned an IC50 below 250 nM. In addition, the “Percent Inhibition (1 μM)” value (recombinant MALT-1 1.5 nM) is recorded as 99%.
Compound `O=C(Nc1cc(C(F)(F)F)ncn1)c1cnn(Cc2cccc(F)c2Cl)c1C(F)(F)F` [Compound 44, 1-(2-chloro-3-fluorobenzyl)-5-(trifluoromethyl)-N-(6-(trifluoromethyl)pyrimidin-4-yl)-1H-pyrazole-4-carboxamide] displayed an IC50 above 1000 nM. The inhibition at 1 µM (recombinant MALT-1 1.5 nM) was 38%.
The like results for `CC(c1cccc(F)c1)n1ncc(C(=O)Nc2cnc(-n3nccn3)c(Cl)c2)c1C(F)(F)F` (racemic) [Compound 4, N-(5-chloro-6-(2H-1,2,3-triazol-2-yl)pyridin-3-yl)-1-(1-(3-fluorophenyl)ethyl)-5-(trifluoromethyl)-1H-pyrazole-4-carboxamide] were, in that order, 251 to 1000 nM and 77%.
For the compound `COc1ncc(NC(=O)c2cnn(Cc3cccc(F)c3)c2C(F)(F)F)cc1Cl` [Compound 22, N-(5-chloro-6-methoxypyridin-3-yl)-1-(3-fluorobenzyl)-5-(trifluoromethyl)-1H-pyrazole-4-carboxamide], where the note is “recombinant MALT-1 1.5 nM”, the inhibition at 1 µM was 41%.
Compound `Cc1ccc(F)cc1Cn1ncc(C(=O)Nc2cnc(-n3nccn3)c(C#N)c2)c1C(F)(F)F` [Compound 28, N-(5-cyano-6-(2H-1,2,3-triazol-2-yl)pyridin-3-yl)-1-(5-fluoro-2-methylbenzyl)-5-(trifluoromethyl)-1H-pyrazole-4-carboxamide] gave an IC50 of 251 to 1000 nM. In addition, the inhibition at 1 µM (recombinant MALT-1 1.5 nM) was determined as 84%.
`CC(c1cccc(F)c1)n1ncc(C(=O)Nc2cnc(-n3nccn3)c(C#N)c2)c1C(F)(F)F` (single isomer, unassigned) [Compound 3b] came in with an IC50 below 250 nM. In addition, under “recombinant MALT-1 1.5 nM”, the “Percent Inhibition (1 μM)” value is on record as 100%.
For `O=C(Nc1cnc(-n2nccn2)c(Cl)c1)c1cnn(Cc2cccc(F)c2)c1C(F)(F)F` [Compound 25, N-(5-chloro-6-(2H-1,2,3-triazol-2-yl)pyridin-3-yl)-1-(3-fluorobenzyl)-5-(trifluoromethyl)-1H-pyrazole-4-carboxamide], the IC50 was below 250 nM. The inhibition at 1 µM (recombinant MALT-1 1.5 nM) was found to be 100%.
The like results for `N#Cc1cc(NC(=O)c2cnn(Cc3ccc(Cl)cc3)c2C(F)(F)F)cnc1-n1nccn1` [Compound 9, 1-(4-chlorobenzyl)-N-(5-cyano-6-(2H-1,2,3-triazol-2-y1)pyridin-3-yl)-5-(trifluoromethyl)-1H-pyrazole-4-carboxamide] were, in that order, 251 to 1000 nM and 55%.
